Measurements reported in US10213427B2 (Incyte Corporation, priority 2010, dated 2019).

Molecular target: FGFR3 enzyme (Millipore) (Homo sapiens (Human), UniProt P22607)
Experiment: FGFR3 Enzymatic Assay
Format: biochemical
Details: FRET peptide phosphorylation, 140 μM ATP
Procedure: The inhibitor potency of compounds of the invention was measured in an enzyme assay that measures peptide phosphorylation using FRET measurements to detect product formation. Inhibitors were serially diluted in DMSO and a volume of 0.5 μL was transferred to the wells of a 384-well plate. A 10 μL volume of FGFR3 enzyme (Millipore) diluted in assay buffer (50 mM HEPES, 10 mM MgCl2, 1 mM EGTA, 0.01% Tween-20, 5 mM DTT, pH 7.5) was added to the plate and pre-incubated for 5-10 minutes. Appropriate controls (enzyme blank and enzyme with no inhibitor) were included on the plate. […] The plate was incubated at 25° C. for 1 hr. […] The plate was allowed to equilibrate for ˜1 hr before scanning the wells on a PheraStar plate reader.
GraphPad prism3 was used to analyze the data. The IC50 values were derived by fitting the data to the equation for a sigmoidal dose-response with a variable slope. Y=Bottom+(Top−Bottom)/(1+10^((Log IC50−X)*HillSlope)) where X is the logarithm of concentration and Y is the response.

Sequence of FGFR3 enzyme (Millipore) (P22607 23-806): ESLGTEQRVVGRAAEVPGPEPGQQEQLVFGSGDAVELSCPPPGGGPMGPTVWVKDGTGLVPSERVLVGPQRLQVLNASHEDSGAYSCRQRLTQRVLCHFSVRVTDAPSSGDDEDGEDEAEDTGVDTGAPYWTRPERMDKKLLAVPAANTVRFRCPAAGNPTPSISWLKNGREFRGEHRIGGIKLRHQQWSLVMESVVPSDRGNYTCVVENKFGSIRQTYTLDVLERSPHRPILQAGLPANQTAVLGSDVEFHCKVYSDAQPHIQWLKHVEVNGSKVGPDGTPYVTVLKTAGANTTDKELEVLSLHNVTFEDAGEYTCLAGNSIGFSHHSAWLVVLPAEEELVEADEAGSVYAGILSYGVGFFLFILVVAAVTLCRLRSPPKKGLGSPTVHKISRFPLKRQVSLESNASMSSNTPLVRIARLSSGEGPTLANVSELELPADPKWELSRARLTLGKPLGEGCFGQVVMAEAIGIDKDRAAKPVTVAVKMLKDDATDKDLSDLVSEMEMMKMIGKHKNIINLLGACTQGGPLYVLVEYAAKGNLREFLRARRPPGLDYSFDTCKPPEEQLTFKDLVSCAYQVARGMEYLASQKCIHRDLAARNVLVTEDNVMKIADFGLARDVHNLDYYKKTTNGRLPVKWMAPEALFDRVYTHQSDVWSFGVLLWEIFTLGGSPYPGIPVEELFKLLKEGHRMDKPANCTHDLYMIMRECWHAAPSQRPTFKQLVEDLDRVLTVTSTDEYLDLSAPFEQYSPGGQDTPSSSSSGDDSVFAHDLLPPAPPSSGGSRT

Row | IC50 [nM] | Structure (SMILES)
1 | < 10 | CN1CCC(CNC(=O)c2cccc(-c3ccc4c(c3)ncn4-c3cccc(NC(=O)NCC(F)(F)F)c3)c2)CC1 [Example 3, N-[(1-Methylpiperidin-4-yl)methyl]-3-{1-[3-({[(2,2,2-trifluoroethyl)amino]carbonyl}amino)phenyl]-1H-benzimidazol-5-yl}benzamide]
2 | < 10 | O=C(NCC(F)(F)F)Nc1cccc(-n2cnc3cc(-c4cccc(C(=O)NCCN5CCOCC5)c4)ccc32)c1 [Example 4, N-(2-Morpholin-4-ylethyl)-3-{1-[3-({[(2,2,2-trifluoroethyl)amino]carbonyl}amino)phenyl]-1H-benzimidazol-5-yl}benzamide]
3 | < 10 | CN1CCC(CNC(=O)c2ccc(-c3ccc4c(c3)ncn4-c3cccc(NC(=O)NCC(F)(F)F)c3)cc2)CC1 [Example 10, N-[(1-Methylpiperidin-4-yl)methyl]-4-{1-[3-({[(2,2,2-trifluoroethyl)amino]carbonyl}amino)phenyl]-1H-benzimidazol-5-yl}benzamide]
4 | < 10 | O=C(NCC(F)(F)F)Nc1cccc(-n2cnc3cc(-c4ccc(C(=O)NCCN5CCOCC5)cc4)ccc32)c1 [Example 11, N-(2-Morpholin-4-ylethyl)-4-{1-[3-({[(2,2,2-trifluoroethyl)amino]carbonyl}amino)phenyl]-1H-benzimidazol-5-yl}benzamide]
5 | < 10 | O=C(NCC(F)(F)F)Nc1cccc(-n2cnc3cc(-c4ccc(C(=O)NCc5cccnc5)cc4)ccc32)c1 [Example 12, N-(Pyridin-3-ylmethyl)-4-{1-[3-({[(2,2,2-trifluoroethyl)amino]carbonyl}amino)phenyl]-1H-benzimidazol-5-yl}benzamide]
6 | < 10 | CC(C(=O)N(C)C)c1ccc(-c2ccc3c(c2)ncn3-c2cccc(NC(=O)NCC(F)(F)F)c2)cc1 (centres unmarked) [Example 15, N,N-Dimethyl-2-(4-{1-[3-({[(2,2,2-trifluoroethyl)amino]carbonyl}amino)phenyl]-1H-benzimidazol-5-yl}phenyl)propanamide]
7 | < 10 | CC(C(=O)NCc1nccn1C)c1ccc(-c2ccc3c(c2)ncn3-c2cccc(NC(=O)NCC(F)(F)F)c2)cc1 (centres unmarked) [Example 20, N-[(1-Methyl-1H-imidazol-2-yl)methyl]-2-(4-{1-[3-({[(2,2,2-trifluoroethyl)amino]carbonyl}amino)phenyl]-1H-benzimidazol-5-yl}phenyl)propanamide]

Continued, molecule first:

Row | Structure (SMILES) | IC50 [nM]
8 | O=C(NCC(F)(F)F)Nc1cccc(-n2cnc3cc(-c4cccc(C(=O)NCC5CC5)c4)ccc32)c1 [Example 1] | < 10
9 | O=C(NCC(F)(F)F)Nc1cccc(-n2cnc3cc(-c4cccc(C(=O)NCC5CCCO5)c4)ccc32)c1 (centres unmarked) [Example 2, N-(Tetrahydrofuran-2-ylmethyl)-3-{1-[3-({[(2,2,2-trifluoroethyl)amino]carbonyl}amino)phenyl]-1H-benzimidazol-5-yl}benzamide] | < 10
10 | O=C(NCC(F)(F)F)Nc1cccc(-n2cnc3cc(-c4cccc(C(=O)NCc5cccnc5)c4)ccc32)c1 [Example 5, N-(Pyridin-3-ylmethyl)-3-{1-[3-({[(2,2,2-trifluoroethyl)amino]carbonyl}amino)phenyl]-1H-benzimidazol-5-yl}benzamide] | < 10
11 | Cn1ccnc1CNC(=O)c1cccc(-c2ccc3c(c2)ncn3-c2cccc(NC(=O)NCC(F)(F)F)c2)c1 [Example 6, N-[(1-Methyl-1H-imidazol-2-yl)methyl]-3-{1-[3-({[(2,2,2-trifluoroethyl)amino]carbonyl}amino)phenyl]-1H-benzimidazol-5-yl}benzamide] | < 10
12 | O=C(NCC(F)(F)F)Nc1cccc(-n2cnc3cc(-c4ccc(C(=O)NCC5CC5)cc4)ccc32)c1 [Example 7, N-(Cyclopropylmethyl)-4-{1-[3-({[(2,2,2-trifluoroethyl)amino]carbonyl}amino)phenyl]-1H-benzimidazol-5-yl}benzamide] | < 10
13 | O=C(NCC(F)(F)F)Nc1cccc(-n2cnc3cc(-c4ccc(C(=O)NCC5CCCO5)cc4)ccc32)c1 (centres unmarked) [Example 8, N-(Tetrahydrofuran-2-ylmethyl)-4-{1-[3-({[(2,2,2-trifluoroethyl)amino]carbonyl}amino)phenyl]-1H-benzimidazol-5-yl}benzamide] | < 10
14 | O=C(NCC(F)(F)F)Nc1cccc(-n2cnc3cc(-c4ccc(C(=O)NCC5CCCCC5O)cc4)ccc32)c1 (centres unmarked) [Example 9] | < 10
15 | Cn1ccnc1CNC(=O)c1ccc(-c2ccc3c(c2)ncn3-c2cccc(NC(=O)NCC(F)(F)F)c2)cc1 [Example 13, N-[(1-Methyl-1H-imidazol-2-yl)methyl]-4-{1-[3-({[(2,2,2-trifluoroethyl)amino]carbonyl}amino)phenyl]-1H-benzimidazol-5-yl}benzamide] | < 10
16 | CNC(=O)C(C)c1ccc(-c2ccc3c(c2)ncn3-c2cccc(NC(=O)NCC(F)(F)F)c2)cc1 (centres unmarked) [Example 14, N-Methyl-2-(4-{1-[3-({[(2,2,2-trifluoroethyl)amino]carbonyl}amino)phenyl]-1H-benzimidazol-5-yl}phenyl)propanamide] | < 10
17 | CC(C(=O)NCC1CC1)c1ccc(-c2ccc3c(c2)ncn3-c2cccc(NC(=O)NCC(F)(F)F)c2)cc1 (centres unmarked) [Example 16, N-(Cyclopropylmethyl)-2-(4-{{1-[3-(([(2,2,2-trifluoroethyl)amino]carbonyl)}amino)phenyl]-1H-benzimidazol-5-yl}phenyl)propanamide] | < 10
18 | CC(C(=O)N1CCCC1)c1ccc(-c2ccc3c(c2)ncn3-c2cccc(NC(=O)NCC(F)(F)F)c2)cc1 (centres unmarked) [Example 17, N-(3-{5-[4-(1-Methyl-2-oxo-2-pyrrolidin-1-ylethyl)phenyl]-1H-benzimidazol-1-yl}phenyl)-N′-(2,2,2-trifluoroethyl)urea] | < 10
19 | CC(C(=O)NCC1CCCO1)c1ccc(-c2ccc3c(c2)ncn3-c2cccc(NC(=O)NCC(F)(F)F)c2)cc1 (centres unmarked) [Example 18, N-(Tetrahydrofuran-2-ylmethyl)-2-(4-{1-[3-({[(2,2,2-trifluoroethyl)amino]carbonyl}amino)phenyl]-1H-benzimidazol-5-yl}phenyl)propanamide] | < 10
20 | CC(C(=O)N1CCC(C#N)C1)c1ccc(-c2ccc3c(c2)ncn3-c2cccc(NC(=O)NCC(F)(F)F)c2)cc1 (centres unmarked) [Example 19, N-[3-(5-{4-[2-(3-Cyanopyrrolidin-1-yl)-1-methyl-2-oxoethyl]phenyl}-1H-benzimidazol-1-yl)phenyl]-N′-(2,2,2-trifluoroethyl)urea] | < 10
21 | O=C(NCC(F)(F)F)Nc1cccc(-n2cnc3cc(-c4cnn(C5CCN(CC6CC6)CC5)c4)ccc32)c1 [Example 21, N-[3-(5-{1-[1-(Cyclopropylmethyl)piperidin-4-yl]-1H-pyrazol-4-yl}-1H-benzimidazol-1-yl)phenyl]-N′-(2,2,2-trifluoroethyl)urea] | < 10
22 | N#CCC(n1cc(-c2ccc3c(c2)ncn3-c2cccc(NC(=O)NCC(F)(F)F)c2)cn1)C(F)(F)F (centres unmarked) [Example 22, N-[3-(5-{1-[1-(Cyanomethyl)-2,2,2-trifluoroethyl]-1H-pyrazol-4-yl}-1H-benzimidazol-1-yl)phenyl]-N′-(2,2,2-trifluoroethyl)urea] | < 10
23 | Cn1cc(C(=O)N2CCC(n3cc(-c4ccc5c(c4)ncn5-c4cccc(NC(=O)NCC(F)(F)F)c4)cn3)CC2)cn1 [Example 23, N-{3-[5-(1-{1-[(1-Methyl-1H-pyrazol-4-yl)carbonyl]piperidin-4-yl}-1H-pyrazol-4-yl)-1H-benzimidazol-1-yl]phenyl}-N′-(2,2,2-trifluoroethyl)urea] | < 10
